Remaining activity data for four compounds are collected here from publication PMC7827406, “Structure–Activity Relationship (SAR) Study of Spautin-1 to Entail the Discovery of Novel NEK4 Inhibitors” (International Journal of Molecular Sciences, 2021).

Holding throughout (assay): biochemical
What all share (parameters): Eurofins KinaseProfiler full panel at Km ATP, residual kinase activity (%) relative to DMSO

In one test the target is T1, IGF-1R(h), activated (Homo sapiens, UniProt P08069).
T1 construct: gene IGF1R
T1 sequence (P08069 whole entry): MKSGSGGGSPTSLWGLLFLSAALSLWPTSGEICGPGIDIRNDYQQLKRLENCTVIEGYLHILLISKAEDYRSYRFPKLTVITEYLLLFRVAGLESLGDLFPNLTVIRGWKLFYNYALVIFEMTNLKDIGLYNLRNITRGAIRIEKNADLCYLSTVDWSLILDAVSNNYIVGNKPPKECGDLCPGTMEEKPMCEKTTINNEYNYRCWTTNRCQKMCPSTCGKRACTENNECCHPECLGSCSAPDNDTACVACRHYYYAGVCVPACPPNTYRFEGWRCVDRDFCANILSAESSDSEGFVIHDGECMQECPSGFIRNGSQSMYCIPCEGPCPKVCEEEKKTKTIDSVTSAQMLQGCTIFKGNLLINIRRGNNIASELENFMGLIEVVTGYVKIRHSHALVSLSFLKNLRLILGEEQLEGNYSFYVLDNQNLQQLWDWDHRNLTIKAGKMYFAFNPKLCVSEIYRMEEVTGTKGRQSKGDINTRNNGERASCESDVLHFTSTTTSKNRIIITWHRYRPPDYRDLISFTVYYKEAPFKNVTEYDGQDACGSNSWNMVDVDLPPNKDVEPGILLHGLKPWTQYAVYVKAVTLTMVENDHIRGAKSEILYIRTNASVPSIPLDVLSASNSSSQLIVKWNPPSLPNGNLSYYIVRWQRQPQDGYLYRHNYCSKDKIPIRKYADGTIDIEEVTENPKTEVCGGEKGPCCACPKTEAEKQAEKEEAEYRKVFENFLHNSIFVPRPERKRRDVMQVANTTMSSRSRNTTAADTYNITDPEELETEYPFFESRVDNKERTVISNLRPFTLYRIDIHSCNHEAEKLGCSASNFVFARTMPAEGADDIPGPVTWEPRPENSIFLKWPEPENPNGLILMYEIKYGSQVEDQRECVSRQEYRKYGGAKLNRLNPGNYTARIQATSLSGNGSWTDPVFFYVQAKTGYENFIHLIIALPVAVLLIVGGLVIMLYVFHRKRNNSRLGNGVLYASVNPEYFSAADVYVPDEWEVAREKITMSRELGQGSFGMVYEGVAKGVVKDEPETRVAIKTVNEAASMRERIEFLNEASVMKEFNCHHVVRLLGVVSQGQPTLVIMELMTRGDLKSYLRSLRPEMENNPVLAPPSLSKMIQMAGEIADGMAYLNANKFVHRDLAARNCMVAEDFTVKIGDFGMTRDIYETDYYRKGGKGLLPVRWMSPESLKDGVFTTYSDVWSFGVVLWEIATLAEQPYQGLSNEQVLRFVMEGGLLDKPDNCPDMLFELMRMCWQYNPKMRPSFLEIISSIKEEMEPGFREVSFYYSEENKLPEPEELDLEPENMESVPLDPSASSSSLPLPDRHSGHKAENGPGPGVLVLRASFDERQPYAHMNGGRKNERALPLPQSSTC
In short, it runs like this:
(§1)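 Radiometric kinase activity assays were run with ATP at Km and compounds at 10 µM, and remaining activity (%) was reported. A separate competitive binding screen measured DNA-tagged kinase displaced from immobilized active-site ligands by qPCR, giving percent kinase still bound at 10 µM compound in DMSO.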

The next test deals with T2, SGK(h) (Homo sapiens, UniProt O00141).
T2 construct: gene SGK1
T2 sequence (O00141 1-431): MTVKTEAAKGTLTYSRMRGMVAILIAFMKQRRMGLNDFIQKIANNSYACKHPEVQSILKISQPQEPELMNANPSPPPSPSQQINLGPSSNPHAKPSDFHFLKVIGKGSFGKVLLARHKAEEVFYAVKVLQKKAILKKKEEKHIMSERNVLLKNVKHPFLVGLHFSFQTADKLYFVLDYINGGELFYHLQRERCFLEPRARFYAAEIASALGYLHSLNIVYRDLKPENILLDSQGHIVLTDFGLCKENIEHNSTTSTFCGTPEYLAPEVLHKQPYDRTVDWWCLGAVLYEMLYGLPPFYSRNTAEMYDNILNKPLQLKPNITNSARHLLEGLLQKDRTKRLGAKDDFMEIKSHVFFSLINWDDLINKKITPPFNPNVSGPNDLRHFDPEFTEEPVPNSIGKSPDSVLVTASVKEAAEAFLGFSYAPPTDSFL
The method in brief: as §1

Test [1] deals with T3, PI3 Kinase (p110a(E545K)/p85a)(m) (Mus musculus, UniProt P42337, E545K).
T3 construct: gene Pik3ca
T3 sequence (P42337 whole entry E545K): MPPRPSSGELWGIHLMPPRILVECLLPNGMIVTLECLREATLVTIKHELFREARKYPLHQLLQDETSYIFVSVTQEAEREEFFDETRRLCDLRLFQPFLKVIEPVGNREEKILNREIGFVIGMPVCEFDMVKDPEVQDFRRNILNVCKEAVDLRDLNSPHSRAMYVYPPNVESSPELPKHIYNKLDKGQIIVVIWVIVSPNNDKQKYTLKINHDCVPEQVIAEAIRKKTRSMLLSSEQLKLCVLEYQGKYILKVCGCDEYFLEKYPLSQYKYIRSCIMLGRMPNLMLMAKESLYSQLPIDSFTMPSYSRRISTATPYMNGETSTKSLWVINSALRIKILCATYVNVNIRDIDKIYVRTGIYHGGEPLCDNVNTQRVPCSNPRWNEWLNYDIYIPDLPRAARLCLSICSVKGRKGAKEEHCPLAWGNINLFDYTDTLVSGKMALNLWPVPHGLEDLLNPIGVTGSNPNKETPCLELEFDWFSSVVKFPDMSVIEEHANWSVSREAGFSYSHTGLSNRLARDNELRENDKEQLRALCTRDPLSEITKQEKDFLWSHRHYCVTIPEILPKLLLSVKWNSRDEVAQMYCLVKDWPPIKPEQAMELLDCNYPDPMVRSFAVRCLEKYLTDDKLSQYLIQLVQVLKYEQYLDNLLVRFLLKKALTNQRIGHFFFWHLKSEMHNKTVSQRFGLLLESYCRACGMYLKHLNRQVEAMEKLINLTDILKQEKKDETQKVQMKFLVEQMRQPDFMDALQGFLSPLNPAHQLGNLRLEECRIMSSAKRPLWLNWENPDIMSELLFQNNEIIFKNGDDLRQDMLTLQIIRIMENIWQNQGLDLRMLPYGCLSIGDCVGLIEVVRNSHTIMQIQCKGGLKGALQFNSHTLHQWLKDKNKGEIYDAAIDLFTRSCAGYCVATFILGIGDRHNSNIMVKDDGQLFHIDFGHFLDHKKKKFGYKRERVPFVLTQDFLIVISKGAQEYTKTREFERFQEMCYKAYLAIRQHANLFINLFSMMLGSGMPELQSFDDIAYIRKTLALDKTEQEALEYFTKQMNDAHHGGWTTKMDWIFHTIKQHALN
T3 sequence (P26450 whole entry partner): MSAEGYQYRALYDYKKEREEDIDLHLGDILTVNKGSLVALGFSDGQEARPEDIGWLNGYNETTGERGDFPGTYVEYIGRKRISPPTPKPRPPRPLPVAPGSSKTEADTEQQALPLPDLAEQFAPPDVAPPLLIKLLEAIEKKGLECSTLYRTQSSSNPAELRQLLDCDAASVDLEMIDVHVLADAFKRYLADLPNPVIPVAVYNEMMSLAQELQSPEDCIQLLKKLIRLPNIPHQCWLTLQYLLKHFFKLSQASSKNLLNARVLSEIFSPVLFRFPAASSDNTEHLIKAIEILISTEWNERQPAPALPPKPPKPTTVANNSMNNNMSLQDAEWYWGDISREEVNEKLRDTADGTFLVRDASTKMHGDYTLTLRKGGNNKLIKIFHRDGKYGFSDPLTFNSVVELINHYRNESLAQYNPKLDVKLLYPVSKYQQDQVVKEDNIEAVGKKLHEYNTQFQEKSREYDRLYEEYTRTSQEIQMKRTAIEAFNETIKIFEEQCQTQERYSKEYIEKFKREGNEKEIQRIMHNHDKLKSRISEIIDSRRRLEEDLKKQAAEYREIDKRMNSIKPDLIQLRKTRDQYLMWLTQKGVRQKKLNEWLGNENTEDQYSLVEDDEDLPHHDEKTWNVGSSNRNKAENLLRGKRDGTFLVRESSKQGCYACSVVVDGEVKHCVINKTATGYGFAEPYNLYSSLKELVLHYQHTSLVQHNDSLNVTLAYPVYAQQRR
The method in brief:
as §1

The target in a further test is T4, CHK2(h) (Homo sapiens, UniProt O96017).
T4 construct: gene CHEK2
T4 sequence (O96017 whole entry): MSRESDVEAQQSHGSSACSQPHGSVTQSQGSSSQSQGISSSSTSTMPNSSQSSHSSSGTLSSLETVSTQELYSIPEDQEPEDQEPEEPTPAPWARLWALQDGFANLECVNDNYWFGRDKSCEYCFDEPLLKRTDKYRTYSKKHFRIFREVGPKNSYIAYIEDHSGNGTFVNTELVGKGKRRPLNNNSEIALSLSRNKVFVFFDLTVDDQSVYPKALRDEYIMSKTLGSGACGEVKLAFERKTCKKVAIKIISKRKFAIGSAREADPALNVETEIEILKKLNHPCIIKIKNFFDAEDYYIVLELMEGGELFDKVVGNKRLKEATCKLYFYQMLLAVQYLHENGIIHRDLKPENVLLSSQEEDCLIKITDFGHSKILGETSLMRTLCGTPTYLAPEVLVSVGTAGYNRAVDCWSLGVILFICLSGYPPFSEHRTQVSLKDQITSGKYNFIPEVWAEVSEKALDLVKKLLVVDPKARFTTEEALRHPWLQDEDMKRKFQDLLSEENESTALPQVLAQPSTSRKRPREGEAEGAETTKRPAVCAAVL
In short, it runs like this:
as §1

The target in a further test is T5, ALK6(h) (Homo sapiens, UniProt O00238).
T5 construct: gene BMPR1B
T5 sequence (O00238 whole entry): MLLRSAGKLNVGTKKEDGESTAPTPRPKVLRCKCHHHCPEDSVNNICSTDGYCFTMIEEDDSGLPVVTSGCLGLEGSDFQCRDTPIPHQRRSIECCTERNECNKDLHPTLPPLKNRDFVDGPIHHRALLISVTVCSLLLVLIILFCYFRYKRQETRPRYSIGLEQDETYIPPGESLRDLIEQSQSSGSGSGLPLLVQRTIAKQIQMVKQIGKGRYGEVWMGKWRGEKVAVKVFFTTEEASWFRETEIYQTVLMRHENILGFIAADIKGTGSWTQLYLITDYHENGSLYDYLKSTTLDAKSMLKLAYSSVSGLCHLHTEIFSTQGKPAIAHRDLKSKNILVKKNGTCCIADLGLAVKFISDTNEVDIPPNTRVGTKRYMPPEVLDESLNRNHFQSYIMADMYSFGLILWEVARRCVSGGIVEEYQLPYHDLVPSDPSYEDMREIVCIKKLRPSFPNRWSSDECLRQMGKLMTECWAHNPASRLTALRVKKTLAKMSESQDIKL
In short, it runs like this:
as §1

Test [2] addresses T6, PI3 Kinase (p110a(H1047R)/p85a)(m) (Mus musculus, UniProt P42337, H1047R).
T6 construct: gene Pik3ca
The method in brief: as §1

The next test has as its target CDK2/cyclinA(h) (Homo sapiens, UniProt P24941). The method in brief:
as §1

In a further test the target is T7, Flt3(h) (Homo sapiens, UniProt P36888).
T7 sequence (P36888 1-993): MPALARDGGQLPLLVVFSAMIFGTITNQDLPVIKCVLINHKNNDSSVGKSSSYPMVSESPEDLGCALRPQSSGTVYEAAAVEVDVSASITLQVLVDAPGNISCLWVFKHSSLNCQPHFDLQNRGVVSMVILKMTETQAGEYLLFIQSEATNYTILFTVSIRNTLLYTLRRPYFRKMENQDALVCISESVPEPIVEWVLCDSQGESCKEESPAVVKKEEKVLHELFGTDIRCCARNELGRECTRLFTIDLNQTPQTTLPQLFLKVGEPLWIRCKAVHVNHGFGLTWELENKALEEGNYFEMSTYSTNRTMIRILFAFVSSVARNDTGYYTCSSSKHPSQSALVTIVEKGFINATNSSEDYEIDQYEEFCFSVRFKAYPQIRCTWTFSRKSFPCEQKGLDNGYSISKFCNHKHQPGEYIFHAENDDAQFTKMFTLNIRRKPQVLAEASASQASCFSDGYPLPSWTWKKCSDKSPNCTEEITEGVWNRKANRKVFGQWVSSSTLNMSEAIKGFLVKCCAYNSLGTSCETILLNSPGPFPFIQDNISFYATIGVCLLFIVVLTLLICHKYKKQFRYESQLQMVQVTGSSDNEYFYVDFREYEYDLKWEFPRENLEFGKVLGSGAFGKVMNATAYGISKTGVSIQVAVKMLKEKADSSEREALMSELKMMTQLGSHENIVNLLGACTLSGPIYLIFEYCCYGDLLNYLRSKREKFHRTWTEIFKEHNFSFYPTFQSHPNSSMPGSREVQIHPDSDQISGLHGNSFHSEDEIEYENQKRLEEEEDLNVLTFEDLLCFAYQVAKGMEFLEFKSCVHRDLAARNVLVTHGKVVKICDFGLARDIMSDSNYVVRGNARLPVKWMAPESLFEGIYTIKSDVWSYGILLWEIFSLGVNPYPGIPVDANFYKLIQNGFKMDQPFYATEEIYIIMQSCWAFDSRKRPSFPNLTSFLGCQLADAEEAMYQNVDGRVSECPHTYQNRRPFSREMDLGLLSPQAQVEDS
The method in brief: as §1

[3] abbreviates: read-out: Residual activity (%) 5at.
Where [4] appears, read: read-out: Residual activity (%) 5ay.
Where [5] appears, read: read-out: Residual activity (%) 5as.
The mark [6] stands for this setting: read-out: Residual activity (%) Spautin-1 5aa.

Where two headings read alike, the source gives them in different places.

T6 sequence (P42337 whole entry H1047R): as the sequence (P42337 whole entry E545K) above, with K545E, H1047R counted along it
T6 sequence (P26450 whole entry partner): as the sequence (P26450 whole entry partner) above

`Fc1ccc2ncnc(NCCc3ccc(Cl)cc3)c2c1` [5at, N-[2-(4-Chlorophenyl)Ethyl]-6-Fluoro-4-Quinazolinamine]: the remaining activity at 10 µM worked out at 76% on IGF-1R(h), activated (setting [3]); 92% on SGK(h) (setting [3]); 91% in test [1] (setting [3]); 75% at CHK2(h) (setting [3]); 92% on ALK6(h) (setting [3]); 94% in test [2] (setting [3]). Besides, the remaining activity at 10 µM stood at 86% on CDK2/cyclinA(h) (setting [3]) and 62% at Flt3(h) (setting [3]).
Consider `COc1ccc2ncnc(Nc3cccc(F)c3)c2c1` [5ay, N-(3-Fluorophenyl)-6-Methoxy-4-Quinazolinamine], for which the remaining activity at 10 µM was determined as 73% on IGF-1R(h), activated (setting [4]); 82% at SGK(h) (setting [4]); 91% in test [1] (setting [4]); 67% on CHK2(h) (setting [4]); 87% at ALK6(h) (setting [4]); 93% in test [2] (setting [4]). Besides, the remaining activity at 10 µM is 83% on CDK2/cyclinA(h) (setting [4]) and 70% on Flt3(h) (setting [4]).
For the compound `Fc1ccc(CCNc2ncnc3ccc(F)cc23)cc1` [5as, 6-Fluoro-N-[2-(4-Fluorophenyl)Ethyl]-4-Quinazolinamine], the remaining activity at 10 µM was found to be 72% on IGF-1R(h), activated (setting [5]); 86% on SGK(h) (setting [5]); 91% in test [1] (setting [5]); 73% on CHK2(h) (setting [5]); 86% at ALK6(h) (setting [5]); 95% in test [2] (setting [5]). Also, the remaining activity at 10 µM at CDK2/cyclinA(h) (setting [5]) stood at 82%; on Flt3(h) (setting [5]) it was 73%.
For `Fc1ccc(CNc2ncnc3ccc(F)cc23)cc1` [5aa, 6-Fluoro-N-(4-fluorobenzyl)-4-Quinazolinamine], the remaining activity at 10 µM stood at 78% at IGF-1R(h), activated (setting [6]); 82% on SGK(h) (setting [6]); 94% in test [1] (setting [6]); 67% at CHK2(h) (setting [6]); 94% at ALK6(h) (setting [6]); 96% in test [2] (setting [6]). Further, the remaining activity at 10 µM on CDK2/cyclinA(h) (setting [6]) was 95%; on Flt3(h) (setting [6]), 71%.
